Results reported in patent US12187684B2, “Benzimidazole derivatives as modulators of retinoid-related orphan receptor gamma (RORγ) and pharmaceutical use thereof” (Jiangsu Hengrui Medicine Co., Ltd., priority 2018, dated 2025).

What was measured:
RORγ LBD-GST tagged = target: T1, RORγ LBD-GST tagged (Homo sapiens, UniProt P51449); assay: LanthaScreen TR-FRET RORγ coactivator assay; assay type: biochemical; conditions: Fluorescein-D22 coactivator peptide, 1 hour room temperature
T1 construct: RORγ LBD-GST tagged (Cat No. RORC-114H, Creative Biomart); purchased Creative Biomart RORC-114H
T1 sequence (P51449 269-508 limits assumed): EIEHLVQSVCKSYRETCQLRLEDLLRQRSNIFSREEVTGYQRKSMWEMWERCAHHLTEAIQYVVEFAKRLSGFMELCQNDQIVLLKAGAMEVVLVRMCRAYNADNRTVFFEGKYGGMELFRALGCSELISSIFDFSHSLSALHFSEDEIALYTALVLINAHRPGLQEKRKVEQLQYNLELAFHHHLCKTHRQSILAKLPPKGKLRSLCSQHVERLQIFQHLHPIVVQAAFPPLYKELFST
Outline: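 GST-tagged RORγ LBD (25 ng/reaction) was incubated in coregulator buffer D with 5 mM DTT and compound (top 3 μM, 7-fold steps, 7 doses), then with a mix containing 0.6 μM fluorescein-D22 peptide and 8 nM Tb anti-GST antibody. After 1 h at room temperature in the dark, 520/495 nm TR-FRET was read. IC50 came from log concentration versus percent inhibition.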

[1] = tested on: IL-17 production, human PBMC cells; assay: IL-17 production assay using human PBMC; assay type: cell-based; conditions: Homo sapiens, PBMC, 72 h, human PBMC stimulated by cytostim for 3 days, IL-17 ELISA of supernatant
Source text: Test Example 2. IL-17 Production Assay Using Human PBMC
• 1. Human PBMC cells (Cat No. 70025.1, Zenbio) • 2. Lymphocyte medium (Cat No. LYMPH-1, Zenbio) • 3. TexMACS (Cat No. 130-097-196, Miltenyi) • 4. Cytostim-human (Cat No. 1130-092-173, Miltenyi) • 5. Human IL-17 ELISA (Cat No. D1700, R&D systems) • 6. Tecan Infinite M1000 plate reader (Tecan)
Experimental Procedure for IL-17 Production Assay
Cryopreserved peripheral blood human mononuclear cells (PBMCs) were rapidly thawed in warmed Lymphocyte media, and centrifuged cell suspension at 1000 rpm for 10 minutes. The supernatant was removed, and the cell pellets were gently resuspended in TexMACS media.
Human PBMC cells in TexMACS media were plated at 1×10^5 each well in triplicate. The test compounds at various concentrations or vehicle control (<0.5% DMSO) were added into cell culture. The cells were stimulated by cytostim (10 μL/mL) for 3 days in a humidified, 5% CO2 incubator at 37° C.
After incubation, the cell culture supernatant was harvested, and then removed particulates by centrifugation. Human IL-17 in the supernatant was measured using human IL-17 ELISA kit according to the manufacturer's protocol. IC50 values were determined using GraphPad Prism by plotting the compounds concentration versus percent inhibition.

Structure (SMILES) | IC50 (RORγ LBD-GST tagged) | IC50 [1]
CCS(=O)(=O)c1ccc(C(CO)c2nc3c(Cl)c(-c4ccccc4OCC(F)(F)F)c(Cl)cc3[nH]2)cc1 (stereo not drawn) [Example 32, 2-(4,6-dichloro-5-(2-(2,2,2-trifluoroethoxy)phenyl)-1H-benzo[d]imidazol-2-yl)-2-(4-(ethylsulfonyl)phenyl)ethanol] | 0.052 µM | 0.007 µM
CCS(=O)(=O)c1ccc(C(O)c2nc3c(Cl)c(-c4ccccc4OCC(F)(F)F)c(Cl)cc3[nH]2)cc1 (stereo not drawn) [Example 33, (4,6-dichloro-5-(2-(2,2,2-trifluoroethoxy)phenyl)-1H-benzo[d]imidazol-2-yl)(4-(ethylsulfonyl)phenyl)methanol] | 0.031 µM | 0.015 µM
CCS(=O)(=O)c1ccc(C(O)c2nc3c(Cl)c(-c4ccccc4CCC(F)(F)F)c(Cl)cc3[nH]2)cc1 (stereo not drawn) [Example 35, (4,6-dichloro-5-(2-(3,3,3-trifluoropropyl)phenyl)-1H-benzo[d]imidazol-2-yl)(4-(ethylsulfonyl)phenyl)methanol] | 0.061 µM | 0.008 µM
CCS(=O)(=O)c1ccc(/C(=N\O)c2nc3c(Cl)c(-c4ccccc4OC(F)F)c(Cl)cc3[nH]2)cc1 [Example 38, (E,Z)-(4,6-dichloro-5-(2-(difluoromethoxy)phenyl)-1H-benzo[d]imidazol-2-yl)(4-(ethylsulfonyl)phenyl)methanone oxime] | 0.147 µM | 0.873 µM
CS(=O)(=O)c1ccc(C(CO)c2nc3c(Cl)c(-c4ccccc4C(F)(F)F)c(Cl)cc3[nH]2)cc1 (stereo not drawn) [Example 46, 2-(4,6-dichloro-5-(2-(trifluoromethyl)phenyl)-1H-benzo[d]imidazol-2-yl)-2-(4-(methylsulfonyl)phenyl)ethanol] | 0.048 µM | 0.018 µM
O=S(=O)(CC1CC1)c1ccc(C(O)c2nc3c(Cl)c(-c4ccccc4OC(F)(F)F)c(Cl)cc3[nH]2)cc1 (stereo not drawn) [Example 68, (4-((cyclopropylmethyl)sulfonyl)phenyl)(4,6-dichloro-5-(2-(trifluoromethoxy)phenyl)-1H-benzo[d]imidazol-2-yl)methanol] | 0.03 µM | 0.004 µM
O=S(=O)(CC1CC1)c1ccc(C(CO)c2nc3c(Cl)c(-c4ccccc4OC(F)F)c(Cl)cc3[nH]2)cc1 (stereo not drawn) [Example 73, 2-(4-((cyclopropylmethyl)sulfonyl)phenyl)-2-(4,6-dichloro-5-(2-(difluoromethoxy)phenyl)-1H-benzo[d]imidazol-2-yl)ethanol] | 0.029 µM | 0.001 µM
CCS(=O)(=O)c1ccc(C(CO)c2nc3c(Cl)c(-c4ccccc4OC(F)(F)F)c(Cl)cc3[nH]2)c(F)c1 (stereo not drawn) [Example 77, 2-(4,6-dichloro-5-(2-(trifluoromethoxy)phenyl)-1H-benzo[d]imidazol-2-yl)-2-(4-(ethylsulfonyl)-2-fluorophenyl)ethanol] | 0.021 µM | 0.017 µM
CCS(=O)(=O)c1ccc(C(O)c2nc3c(Cl)c(-c4ccccc4OC(F)(F)F)c(Cl)cc3[nH]2)c(F)c1 (stereo not drawn) [Example 78, (4,6-dichloro-5-(2-(trifluoromethoxy)phenyl)-1H-benzo[d]imidazol-2-yl)(4-(ethylsulfonyl)-2-fluorophenyl)methanol] | 0.028 µM | 0.069 µM
O=S(=O)(CC1CC1)c1ccc(Cc2nc3c(Cl)c(-c4ccccc4OC(F)(F)F)c(Cl)cc3[nH]2)c(F)c1 [Example 80, 4,6-dichloro-2-(4-((cyclopropylmethyl)sulfonyl)-2-fluorobenzyl)-5-(2-(trifluoromethoxy)phenyl)-1H-benzo[d]imidazole] | 0.031 µM | 0.013 µM
O=S(=O)(CC1CC1)c1ccc(C(CO)c2nc3c(Cl)c(-c4ccccc4OC(F)(F)F)c(Cl)cc3[nH]2)c(F)c1 (stereo not drawn) [Example 81, 2-(4-((cyclopropylmethyl)sulfonyl)-2-fluorophenyl)-2-(4,6-dichloro-5-(2-(trifluoromethoxy)phenyl)-1H-benzo[d]imidazol-2-yl)ethanol] | 0.035 µM | 0.003 µM
CCS(=O)(=O)c1ccc(Cc2nc3c(Cl)c(-c4ccccc4OC(F)(F)F)c(Cl)cc3[nH]2)c(Cl)c1 [Example 86, 4,6-dichloro-2-(2-chloro-4-(ethylsulfonyl)benzyl)-5-(2-(trifluoromethoxy)phenyl)-1H-benzo[d]imidazole] | 0.075 µM | 0.023 µM
O=S(=O)(CC1CC1)c1ccc(C(CO)c2nc3c(Cl)c(-c4ccccc4OC(F)F)c(Cl)cc3[nH]2)c(F)c1 (stereo not drawn) [Example 99, 2-(4-((cyclopropylmethyl)sulfonyl)-2-fluorophenyl)-2-(4,6-dichloro-5-(2-(difluoromethoxy)phenyl)-1H-benzo[d]imidazol-2-yl)ethanol] | 0.025 µM | 0.0024 µM
CCS(=O)(=O)c1ccc(C(CO)c2nc3cc(-c4ccccc4OC(F)(F)F)c(Cl)cc3[nH]2)cc1 (stereo not drawn) [Example 119, 2-(6-chloro-5-(2-(trifluoromethoxy)phenyl)-1H-benzo[d]imidazol-2-yl)-2-(4-(ethylsulfonyl)phenyl)ethanol] | 0.034 µM | 0.124 µM
O=S(=O)(NC1CC1)c1ccc(C(CO)c2nc3c(Cl)c(-c4ccccc4OC(F)(F)F)c(Cl)cc3[nH]2)cc1 (stereo not drawn) [Example 123, N-cyclopropyl-4-(1-(4,6-dichloro-5-(2-(trifluoromethoxy)phenyl)-1H-benzo[d]imidazol-2-yl)-2-hydroxyethyl)benzenesulfonamide] | 0.03 µM | 0.058 µM

The next molecules have a lower IC50 (RORγ LBD-GST tagged) than those just listed; values first:

IC50 (RORγ LBD-GST tagged) | Structure (SMILES) | IC50 [1]
0.016 µM | CCS(=O)(=O)c1ccc(Cc2nc3c(Cl)c(-c4ccccc4CCC(F)(F)F)c(Cl)cc3[nH]2)cc1 [Example 34, 4,6-dichloro-2-(4-(ethylsulfonyl)benzyl)-5-(2-(3,3,3-trifluoropropyl)phenyl)-1H-benzo[d]imidazole] | 0.049 µM
0.007 µM | CCS(=O)(=O)c1ccc(C(N)c2nc3c(Cl)c(-c4ccccc4OC(F)F)c(Cl)cc3[nH]2)cc1 (stereo not drawn) [Example 39, (4,6-dichloro-5-(2-(difluoromethoxy)phenyl)-1H-benzo[d]imidazol-2-yl)(4-(ethylsulfonyl)phenyl)methanamine] | 0.038 µM
0.002 µM | O=S(=O)(CC1CC1)c1ccc(Cc2nc3c(Cl)c(-c4ccccc4OC(F)(F)F)c(Cl)cc3[nH]2)cc1 [Example 66, 4,6-dichloro-2-(4-((cyclopropylmethyl)sulfonyl)benzyl)-5-(2-(trifluoromethoxy)phenyl)-1H-benzo[d]imidazole] | 0.01 µM
0.002 µM | O=S(=O)(CC1CC1)c1ccc(C(CO)c2nc3c(Cl)c(-c4ccccc4OC(F)(F)F)c(Cl)cc3[nH]2)cc1 (stereo not drawn) [Example 67, 2-(4-((cyclopropylmethyl)sulfonyl)phenyl)-2-(4,6-dichloro-5-(2-(trifluoromethoxy)phenyl)-1H-benzo[d]imidazol-2-yl)ethanol] | 0.002 µM
0.007 µM | O=S(=O)(CC1CC1)c1ccc(Cc2nc3c(Cl)c(-c4ccccc4C(F)(F)F)c(Cl)cc3[nH]2)cc1 [Example 69, 4,6-dichloro-2-(4-((cyclopropylmethyl)sulfonyl)benzyl)-5-(2-(trifluoromethyl)phenyl)-1H-benzo[d]imidazole] | 0.056 µM
0.014 µM | O=S(=O)(CC1CC1)c1ccc(C(CO)c2nc3c(Cl)c(-c4ccccc4C(F)(F)F)c(Cl)cc3[nH]2)cc1 (stereo not drawn) [Example 70, 2-(4-((cyclopropylmethyl)sulfonyl)phenyl)-2-(4,6-dichloro-5-(2-(trifluoromethyl)phenyl)-1H-benzo[d]imidazol-2-yl)ethanol] | 0.006 µM
0.006 µM | O=S(=O)(CC1CC1)c1ccc(Cc2nc3c(Cl)c(-c4ccccc4OC(F)F)c(Cl)cc3[nH]2)cc1 [Example 72, 4,6-dichloro-2-(4-((cyclopropylmethyl)sulfonyl)benzyl)-5-(2-(difluoromethoxy)phenyl)-1H-benzo[d]imidazole] | 0.003 µM
0.019 µM | CCS(=O)(=O)c1ccc(C(CO)c2nc3c(Cl)c(-c4ccccc4OC(F)F)c(Cl)cc3[nH]2)c(F)c1 (stereo not drawn) [Example 84, 2-(4,6-dichloro-5-(2-(difluoromethoxy)phenyl)-1H-benzo[d]imidazol-2-yl)-2-(4-(ethylsulfonyl)-2-fluorophenyl)ethanol] | 0.013 µM
0.014 µM | O=S(=O)(CC1CC1)c1ccc(C(O)c2nc3c(Cl)c(-c4ccccc4OC(F)F)c(Cl)cc3[nH]2)c(F)c1 (stereo not drawn) [Example 100, (4-((cyclopropylmethyl)sulfonyl)-2-fluorophenyl)(4,6-dichloro-5-(2-(difluoromethoxy)phenyl)-1H-benzo[d]imidazol-2-yl)methanol] | 0.0013 µM
